Data on two compounds can be found in patent publication US20170190705A1, “Compositions and Methods for Inhibiting BMP” (THE BRIGHAM AND WOMAN'S HOSPITAL, INC., priority 2014, published 2017).

Each structure is given as a SMILES string. Like-named read-outs stand apart in the source and are kept apart here.

What all share (assay type): biochemical
One assay concerns the target T1, PRKD2 (Homo sapiens, UniProt Q9BZL6).
T1 sequence (Q9BZL6 1-878): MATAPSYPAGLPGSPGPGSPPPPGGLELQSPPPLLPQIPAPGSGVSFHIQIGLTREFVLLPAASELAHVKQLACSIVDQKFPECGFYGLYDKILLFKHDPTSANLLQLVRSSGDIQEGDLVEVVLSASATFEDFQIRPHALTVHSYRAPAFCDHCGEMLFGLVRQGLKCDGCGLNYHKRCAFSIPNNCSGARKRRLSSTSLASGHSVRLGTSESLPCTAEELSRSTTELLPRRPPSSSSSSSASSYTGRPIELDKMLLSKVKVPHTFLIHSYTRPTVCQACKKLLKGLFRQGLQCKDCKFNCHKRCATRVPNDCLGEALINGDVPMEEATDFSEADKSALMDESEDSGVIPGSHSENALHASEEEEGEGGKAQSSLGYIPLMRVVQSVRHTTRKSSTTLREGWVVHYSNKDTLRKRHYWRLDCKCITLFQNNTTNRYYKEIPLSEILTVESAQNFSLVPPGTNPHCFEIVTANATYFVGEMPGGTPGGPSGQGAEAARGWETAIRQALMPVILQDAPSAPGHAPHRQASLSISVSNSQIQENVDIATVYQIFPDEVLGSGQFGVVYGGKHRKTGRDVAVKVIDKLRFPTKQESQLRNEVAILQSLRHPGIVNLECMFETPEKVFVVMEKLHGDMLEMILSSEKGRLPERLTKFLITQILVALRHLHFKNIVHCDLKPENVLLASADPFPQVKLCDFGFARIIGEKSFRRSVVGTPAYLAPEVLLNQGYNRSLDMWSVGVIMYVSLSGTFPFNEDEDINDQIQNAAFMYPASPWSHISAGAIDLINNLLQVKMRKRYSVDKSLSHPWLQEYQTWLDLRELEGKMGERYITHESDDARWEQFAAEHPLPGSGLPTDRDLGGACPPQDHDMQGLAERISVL
Nature of the assay: Kinome profiling PRKD2. To be noted: for inhibition at 0.1 µM: 100 nM. The procedure: (§1) . The kinome-wide selectivity was determined following the methods previously reported by Mohedas et al., ACS Chem Biol 2013, 8, 1291-1302 and Sanvitale et al., PLoS One 2013, 8, e62721.

Another assay addresses MAPKAPK2 (Homo sapiens, UniProt P49137). Nature of the assay: Kinome profiling MAPKAPK2. The note with it: read-out: Inhibitory activity MAPKAPK2; for inhibition at 0.1 µM: 100 nM. The procedure:
as §1

In another assay the target is T2, IKK-β (Homo sapiens, UniProt O14920).
T2 sequence (O14920 1-756): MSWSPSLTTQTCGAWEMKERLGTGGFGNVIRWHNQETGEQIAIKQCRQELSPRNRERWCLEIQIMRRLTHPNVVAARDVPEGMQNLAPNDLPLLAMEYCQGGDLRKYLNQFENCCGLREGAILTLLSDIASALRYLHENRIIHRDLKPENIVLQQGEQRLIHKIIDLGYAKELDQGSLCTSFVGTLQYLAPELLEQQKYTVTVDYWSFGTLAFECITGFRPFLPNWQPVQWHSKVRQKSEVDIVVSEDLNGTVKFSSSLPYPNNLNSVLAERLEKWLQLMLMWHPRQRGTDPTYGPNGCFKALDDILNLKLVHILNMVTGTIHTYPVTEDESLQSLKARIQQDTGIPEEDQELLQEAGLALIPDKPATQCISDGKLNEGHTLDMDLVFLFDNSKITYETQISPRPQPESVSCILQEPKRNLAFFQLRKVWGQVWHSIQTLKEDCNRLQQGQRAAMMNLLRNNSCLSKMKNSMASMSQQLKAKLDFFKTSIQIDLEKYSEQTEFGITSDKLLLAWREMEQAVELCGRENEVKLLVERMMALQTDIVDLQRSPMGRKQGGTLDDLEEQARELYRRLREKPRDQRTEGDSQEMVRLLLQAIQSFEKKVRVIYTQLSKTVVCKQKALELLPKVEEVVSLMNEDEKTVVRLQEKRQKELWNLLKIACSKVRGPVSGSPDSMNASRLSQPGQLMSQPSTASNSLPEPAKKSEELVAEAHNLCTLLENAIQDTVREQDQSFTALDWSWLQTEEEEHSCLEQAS
Nature of the assay: Kinome profiling IKK-β. To be noted: read-out: Inhibitory activity IKK-β; for inhibition at 0.1 µM: 100 nM. The procedure: as §1

A further assay deals with FMS (Homo sapiens, UniProt P07333). In words: Kinome profiling FMS. The note with it: read-out: Inhibitory activity FMS; for inhibition at 0.1 µM: 100 nM. How it is done: as §1
FMS, sequence (P07333 20-972): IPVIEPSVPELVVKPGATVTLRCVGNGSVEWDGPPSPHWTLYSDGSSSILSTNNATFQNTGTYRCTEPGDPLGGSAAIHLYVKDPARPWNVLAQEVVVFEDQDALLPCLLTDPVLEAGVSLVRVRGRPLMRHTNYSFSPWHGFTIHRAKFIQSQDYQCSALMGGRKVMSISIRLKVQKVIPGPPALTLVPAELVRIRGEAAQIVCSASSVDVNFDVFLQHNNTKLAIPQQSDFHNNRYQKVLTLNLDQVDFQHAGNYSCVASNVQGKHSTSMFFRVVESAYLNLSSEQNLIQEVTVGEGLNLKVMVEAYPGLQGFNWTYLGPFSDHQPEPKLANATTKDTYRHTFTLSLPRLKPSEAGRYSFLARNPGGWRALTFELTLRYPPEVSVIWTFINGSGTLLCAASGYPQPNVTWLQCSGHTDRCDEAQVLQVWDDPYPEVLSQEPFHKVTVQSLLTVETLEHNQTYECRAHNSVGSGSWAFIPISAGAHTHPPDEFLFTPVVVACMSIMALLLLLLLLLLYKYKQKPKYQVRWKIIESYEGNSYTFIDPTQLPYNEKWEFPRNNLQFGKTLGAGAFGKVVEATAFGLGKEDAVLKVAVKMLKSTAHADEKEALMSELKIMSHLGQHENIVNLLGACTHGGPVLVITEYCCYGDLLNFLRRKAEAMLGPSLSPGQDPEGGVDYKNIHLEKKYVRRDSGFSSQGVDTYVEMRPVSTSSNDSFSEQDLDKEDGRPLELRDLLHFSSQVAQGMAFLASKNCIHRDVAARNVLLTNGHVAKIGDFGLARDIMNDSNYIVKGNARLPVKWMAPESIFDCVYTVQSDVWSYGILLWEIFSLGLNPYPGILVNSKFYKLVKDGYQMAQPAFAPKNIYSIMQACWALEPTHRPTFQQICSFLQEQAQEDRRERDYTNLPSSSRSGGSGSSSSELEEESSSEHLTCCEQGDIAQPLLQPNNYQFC
Where [1] appears, read: read-out: Inhibitory activity PRKD2.
Where [2] appears, read: Table 4, read-out: Inhibitory Activity PRKD2.

MAPKAPK2, sequence (P49137 whole entry): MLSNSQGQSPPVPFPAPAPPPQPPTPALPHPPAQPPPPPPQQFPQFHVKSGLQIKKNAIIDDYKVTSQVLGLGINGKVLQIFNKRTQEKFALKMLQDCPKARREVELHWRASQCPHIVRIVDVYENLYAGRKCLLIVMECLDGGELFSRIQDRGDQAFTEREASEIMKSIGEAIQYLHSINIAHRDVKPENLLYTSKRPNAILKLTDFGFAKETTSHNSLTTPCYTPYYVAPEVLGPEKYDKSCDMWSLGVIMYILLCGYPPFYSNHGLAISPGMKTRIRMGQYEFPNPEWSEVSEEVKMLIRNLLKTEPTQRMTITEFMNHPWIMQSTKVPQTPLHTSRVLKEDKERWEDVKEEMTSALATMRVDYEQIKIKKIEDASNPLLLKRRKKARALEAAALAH

For `COc1cc(-c2cc(-c3ccc(N4CCNCC4)cc3)cnc2N)cc(OC)c1OC` [Compound 15, 5-(4-(piperazin-1-yl)phenyl)-3-(3,4,5-trimethoxyphenyl)pyridin-2-amine], the inhibition at 0.1 µM is 12% at PRKD2 (setting [1]), 0% at MAPKAPK2, 1% at IKK-β and 23% on FMS. Besides, the inhibition at 1 µM was 54% on PRKD2 (setting [1]), -4% at MAPKAPK2, 3% at IKK-β and 65% on FMS.

With `COc1cc(-c2cc(-c3ccc(N4CCNCC4)cc3)cnc2C)cc(OC)c1OC` [Compound 10, 1-(4-(6-methyl-5-(3,4,5-trimethoxyphenyl)pyridin-3-yl)phenyl)piperazine], the inhibition at 0.1 µM at PRKD2 (setting [2]) stood at 16%; on PRKD2 (setting [1]), 16%; on MAPKAPK2, 4%; at IKK-β it was 2%; on FMS, 5%. Besides, the inhibition at 1 µM on PRKD2 (setting [2]) was 57%; at PRKD2 (setting [1]) it was 57%; on MAPKAPK2, 4%; on IKK-β it was 2%; on FMS, 33%.
